Measured values taken from patent publication US20070244086A1, “3-Phenyl-Pyrazole Derivatives as Modulators of the 5-Ht2A Serotonin Receptor Useful for the Treatment of Disorders Related Thereto” (Arena Pharmaceuticals, Inc., priority 2004, published 2007).

Target: T1, human 5-HT2A receptor (Homo sapiens, UniProt P28223)
T1 construct: expressed in transfected cells; host or cells: COS7 cells, transient transfection, pCMV vector; crude membranes
Assay: [125I]DOI radioligand binding assay
Conditions: 0.5 nM [125I]DOI, membranes of COS7 cells transfected with human 5-HT2A receptor
Description: Crude membrane pellets were stored at −80° C. until used for radioligand binding assays.

T1 sequence (P28223 whole entry): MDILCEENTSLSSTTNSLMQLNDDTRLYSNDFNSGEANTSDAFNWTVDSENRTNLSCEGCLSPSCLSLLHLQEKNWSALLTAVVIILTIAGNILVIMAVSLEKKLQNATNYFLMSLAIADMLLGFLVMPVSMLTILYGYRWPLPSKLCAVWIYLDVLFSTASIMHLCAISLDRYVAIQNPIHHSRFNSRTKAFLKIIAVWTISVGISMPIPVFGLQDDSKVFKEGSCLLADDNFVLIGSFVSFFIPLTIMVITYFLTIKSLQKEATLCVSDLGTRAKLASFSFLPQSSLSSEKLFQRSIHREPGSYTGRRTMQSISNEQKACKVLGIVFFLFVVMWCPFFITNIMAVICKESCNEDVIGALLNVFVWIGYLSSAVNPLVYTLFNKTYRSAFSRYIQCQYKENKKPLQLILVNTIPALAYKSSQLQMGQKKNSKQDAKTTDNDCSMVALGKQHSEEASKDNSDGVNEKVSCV

IC50 | SMILES
0.0102 µM | Cn1nccc1-c1cc(NC(=O)NCc2ccc(Cl)cc2)ccc1OCCN1CCCCC1 [Compound 45, 1-(4-Chloro-benzyl)-3-[3-(2-methyl-2H-pyrazol-3-yl)-4-(2-piperidin-1-yl-ethoxy)-phenyl]-urea]
0.0137 µM | Cn1nccc1-c1cc(NC(=O)Cc2ccc(F)cc2)ccc1OCCN1CCOCC1 [Compound 160, 2-(4-Fluoro-phenyl)-N-[3-(2-methyl-2H-pyrazol-3-yl)-4-(2-morpholin-4-yl-ethoxy)-phenyl]-acetamide]
0.0011 µM | CC(C)COC(=O)Nc1ccc(OCCN2CCCC2)c(-c2c(Br)cnn2C)c1 [Compound 23, [3-(4-Bromo-2-methyl-2H-pyrazol-3-yl)-4-(2-pyrrolidin-1-yl-ethoxy)-phenyl]-carbamic acid isobutyl ester]
